From ChEMBL document CHEMBL1201862, “PubChem BioAssay data set” (2004)
Calls of active or inactive are those of the source.

Experiments:
[1] = blockade of melanocortin 4 receptor signaling – cell-based, plate reader, cherry pick, counter-screen for LGR2 antagonist project, dose response (AID 743444); type: functional;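 further: transfected HEK 293 cells stimulated with alpha-MSH peptide; potency of inhibitors of the alpha-MSH evoked signal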
Paired box protein Pax-8 = Paired box protein Pax-8 (Homo sapiens, UniProt Q06710); experiment: PAX8 transcriptional activity inhibition in RMG-I – RMG-I cells, luciferase, cherry-pick, dose response (AID 687027); type: functional, cell-based;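 further: luciferase reporter driven by Pax8 target thyroperoxidase promoter measured by SteadyGlo luminescence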
[2] = blockers of bursicon-stimulated LGR2 cAMP reporter – cell-based, HEK293, CRE-luciferase reporter, cherry pick, set 2, dose response (AID 743343); type: functional;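 further: transfected cells were stimulated with diluted bursicon conditioned medium after compound addition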
[3] = viability loss in HEK293 cells – cell-based, plate reader, cherry-picked samples, cytotoxicity control, dose response (AID 743446); type: functional
[4] = general cell-killing toxicity readout – plate reader, dry powder samples, cytotoxicity control for PAX8 inhibitor project, dose response (AID 743021); type: functional, cell-based
[5] = toxicity toward HepG2 liver cells – cell-based, plate reader, cherry-pick, antagonist series, cytotoxicity control, dose response (AID 743416); type: functional
[6] = A549 cell cytotoxicity, dose response, cytotoxicity control, plate reader, cherry-pick, antagonist series (AID 743412); type: functional, cell-based
[7] = OVCAR-3 cell viability loss – plate reader, dry powder samples, PAX8 inhibitor project, dose response (AID 743044); type: functional, cell-based
Cytochrome P450 1A2 = molecular target: T1, Cytochrome P450 1A2 (Homo sapiens, UniProt P05177);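 further: PubChem cytochrome P450 panel assay, CYP1A2 panel member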
T1 sequence (P05177 whole entry): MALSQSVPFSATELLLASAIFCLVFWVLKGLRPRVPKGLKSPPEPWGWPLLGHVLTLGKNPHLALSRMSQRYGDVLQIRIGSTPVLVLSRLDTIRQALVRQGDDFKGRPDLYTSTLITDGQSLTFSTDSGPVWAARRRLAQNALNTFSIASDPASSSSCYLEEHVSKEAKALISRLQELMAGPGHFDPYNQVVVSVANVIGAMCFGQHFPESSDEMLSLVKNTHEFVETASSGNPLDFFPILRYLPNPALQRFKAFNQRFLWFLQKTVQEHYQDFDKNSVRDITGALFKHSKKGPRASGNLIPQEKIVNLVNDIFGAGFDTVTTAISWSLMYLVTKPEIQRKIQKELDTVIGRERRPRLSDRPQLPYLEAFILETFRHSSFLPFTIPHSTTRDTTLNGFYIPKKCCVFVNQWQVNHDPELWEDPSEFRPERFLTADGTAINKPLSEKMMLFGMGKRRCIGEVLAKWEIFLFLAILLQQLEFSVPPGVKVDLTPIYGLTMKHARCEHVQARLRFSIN

fMet-Leu-Phe receptor = molecular target: T2, fMet-Leu-Phe receptor (Homo sapiens, UniProt P21462); experiment: formyl peptide receptor binders – dose response (AID 519); type: functional
T2 sequence (P21462 whole entry): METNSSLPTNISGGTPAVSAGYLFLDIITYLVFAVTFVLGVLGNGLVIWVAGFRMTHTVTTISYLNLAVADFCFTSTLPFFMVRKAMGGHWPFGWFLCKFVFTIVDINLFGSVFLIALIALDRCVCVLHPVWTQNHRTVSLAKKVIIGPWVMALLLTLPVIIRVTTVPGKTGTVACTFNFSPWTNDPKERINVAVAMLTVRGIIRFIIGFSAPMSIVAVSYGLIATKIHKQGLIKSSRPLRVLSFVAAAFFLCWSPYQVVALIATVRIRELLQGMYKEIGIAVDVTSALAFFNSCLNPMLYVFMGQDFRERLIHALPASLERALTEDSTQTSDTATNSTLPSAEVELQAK

Cytochrome P450 3A4 = Cytochrome P450 3A4 (Homo sapiens, UniProt P08684);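 further: CYP3A4 tested as one member of a cytochrome P450 panel screen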
[8] = blockers of CRF-binding protein–CRF-R2 complex – cell-based, uHTS hits, 384-well, dose response (AID 651639); type: functional, Homo sapiens; conditions: read-out: IC50_Mean
[9] = molecular target: T3, Corticotropin-releasing factor receptor 2/Corticotropin-releasing factor-binding protein (Homo sapiens, UniProt P24387+Q13324); experiment: activators of CRF receptor 2 with binding protein – uHTS hits, confirmation (AID 602473); type: functional; conditions: read-out: EC50_Mean
T3 sequence (Q13324 whole entry): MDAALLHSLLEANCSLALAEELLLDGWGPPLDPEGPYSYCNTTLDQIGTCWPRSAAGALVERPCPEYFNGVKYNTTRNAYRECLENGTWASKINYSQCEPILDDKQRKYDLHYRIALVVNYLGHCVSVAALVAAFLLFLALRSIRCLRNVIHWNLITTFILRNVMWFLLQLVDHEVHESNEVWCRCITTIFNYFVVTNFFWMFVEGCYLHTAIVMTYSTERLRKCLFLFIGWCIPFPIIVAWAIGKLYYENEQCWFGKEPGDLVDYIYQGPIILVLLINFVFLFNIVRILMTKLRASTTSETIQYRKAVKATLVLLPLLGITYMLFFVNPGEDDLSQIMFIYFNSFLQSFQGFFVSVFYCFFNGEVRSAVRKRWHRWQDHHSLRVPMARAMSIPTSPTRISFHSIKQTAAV
T3 sequence (P24387 whole entry): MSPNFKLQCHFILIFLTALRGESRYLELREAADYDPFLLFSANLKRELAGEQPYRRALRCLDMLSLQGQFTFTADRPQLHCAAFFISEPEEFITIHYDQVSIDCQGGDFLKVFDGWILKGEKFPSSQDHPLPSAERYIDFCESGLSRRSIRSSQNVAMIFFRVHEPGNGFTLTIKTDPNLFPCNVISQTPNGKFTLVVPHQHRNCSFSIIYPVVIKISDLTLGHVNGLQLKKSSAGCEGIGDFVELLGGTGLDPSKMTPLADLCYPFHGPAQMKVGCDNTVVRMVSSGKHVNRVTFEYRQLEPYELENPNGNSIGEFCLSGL

[10] = molecular target: T3, Corticotropin-releasing factor receptor 2/Corticotropin-releasing factor-binding protein; experiment: Dose Response confirmation of uHTS hits for small molecule antagonists of the CRF-binding protein and CRF-R2 receptor complex.; type: functional; conditions: read-out: IC50_Mean
[11] = IGROV1 cell killing – plate reader, dry powder samples, PAX8 inhibitor project, dose response (AID 743043); type: functional, cell-based; conditions: IGROV-1
[12] = OVCAR8 cell viability loss – plate reader, dry powder samples, PAX8 project, dose response (AID 743197); type: functional, cell-based; conditions: OVCAR-8
H4 = experiment: Luminescence Cell-Based Dose Response HTS to Identify Activators of 5'UTR Stem-Loop Driven Prion Protein mRNA Translation in H4 Neuroglioblastoma Cells. [Related pubchem assays: 1829 (Project Summary), 1814 (Primary HTS)]; type: functional; conditions: Homo sapiens
[13] = Luminescence Cell-Based Dose Response HTS to Identify Activators of Luciferase Translation or Activity in H4 […] Cells. [Related pubchem assays: 1829 (Project Summary), 1814 (Primary HTS)]; type: functional
[14] = molecular target: Nuclear receptor subfamily 5 group A member 2 (Homo sapiens, UniProt O00482); type: functional, cell-based;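 further: HEK293T cells transfected with LRH-1 and a StAR promoter luciferase reporter; potency for inhibitors that lower LRH-1 driven reporter light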
Steroidogenic factor 1 = Steroidogenic factor 1 (Homo sapiens, UniProt Q13285); experiment: Counterscreen for inverse agonists of the liver receptor homolog-1 (LRH-1; NR5A2): Luminescence-based cell-based high throughput dose response assay to identify inverse agonists of the Steroidogenic Factor 1 Nuclear Receptor (SF1; NR5A1).; type: functional
[15] = nonselective StAR promoter luciferase inhibitors – cell-based, luminescence, luciferase reporter, counter-screen for LRH-1 inverse agonist project, dose response (AID 651969); type: functional
[16] = molecular target: T4, DNA repair protein RAD52 homolog (Homo sapiens, UniProt P43351); type: functional, biochemical
T4 sequence (P43351 whole entry): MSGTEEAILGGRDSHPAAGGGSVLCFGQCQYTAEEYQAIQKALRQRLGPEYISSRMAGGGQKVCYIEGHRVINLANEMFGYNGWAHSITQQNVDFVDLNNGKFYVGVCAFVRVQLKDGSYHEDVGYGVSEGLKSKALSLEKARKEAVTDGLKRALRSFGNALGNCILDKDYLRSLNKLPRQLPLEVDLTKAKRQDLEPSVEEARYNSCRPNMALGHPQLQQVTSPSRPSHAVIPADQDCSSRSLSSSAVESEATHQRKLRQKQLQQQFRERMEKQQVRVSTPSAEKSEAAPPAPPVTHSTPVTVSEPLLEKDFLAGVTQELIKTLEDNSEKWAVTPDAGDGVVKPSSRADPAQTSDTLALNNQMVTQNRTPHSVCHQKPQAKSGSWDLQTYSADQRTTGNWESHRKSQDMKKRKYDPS

[17] = molecular target: T5, Rac GTPase-activating protein 1 (Homo sapiens, UniProt Q9H0H5); experiment: blockers of MgcRacGAP-driven Rac1 GTP hydrolysis – biochemical, ADP Hunter fluorescence, primary and confirmatory, confirmation (AID 624330); type: functional
T5 sequence (Q9H0H5 whole entry): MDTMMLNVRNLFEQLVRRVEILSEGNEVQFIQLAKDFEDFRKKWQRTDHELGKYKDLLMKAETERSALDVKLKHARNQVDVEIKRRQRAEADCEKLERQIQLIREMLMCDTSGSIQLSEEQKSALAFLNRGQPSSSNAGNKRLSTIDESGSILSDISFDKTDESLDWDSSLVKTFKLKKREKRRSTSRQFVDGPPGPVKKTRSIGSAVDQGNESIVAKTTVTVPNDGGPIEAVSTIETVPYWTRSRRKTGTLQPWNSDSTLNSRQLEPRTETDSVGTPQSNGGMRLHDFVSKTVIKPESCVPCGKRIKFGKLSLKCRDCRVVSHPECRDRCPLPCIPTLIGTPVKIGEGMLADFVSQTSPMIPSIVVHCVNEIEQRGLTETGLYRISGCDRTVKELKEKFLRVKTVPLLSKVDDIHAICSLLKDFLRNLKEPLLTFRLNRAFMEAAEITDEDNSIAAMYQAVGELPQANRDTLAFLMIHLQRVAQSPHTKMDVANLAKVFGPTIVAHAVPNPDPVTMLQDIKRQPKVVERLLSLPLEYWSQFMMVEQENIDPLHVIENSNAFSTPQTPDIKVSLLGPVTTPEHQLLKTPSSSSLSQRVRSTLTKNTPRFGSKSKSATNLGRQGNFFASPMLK

[18] = potency of ADAM10 substrate cleavage blockers – biochemical, QFRET, dose response (AID 743254);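 further: ADAM10 enzyme with the DM2 quenched FRET peptide as substrate; EDANS fluorescence gain as the protease cuts the substrate; inhibitor potency against ADAM10 proteolytic activity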
[19] = molecular target: Disintegrin and metalloproteinase domain-containing protein 17 (Homo sapiens, UniProt P78536); experiment: inhibition of ADAM17 substrate cleavage – biochemical, quenched FRET substrate, counter-screen for ADAM10 exosite inhibitor project, dose response (AID 743253)
Sequence of Disintegrin and metalloproteinase domain-containing protein 17 (P78536 whole entry, the tested form may be a part): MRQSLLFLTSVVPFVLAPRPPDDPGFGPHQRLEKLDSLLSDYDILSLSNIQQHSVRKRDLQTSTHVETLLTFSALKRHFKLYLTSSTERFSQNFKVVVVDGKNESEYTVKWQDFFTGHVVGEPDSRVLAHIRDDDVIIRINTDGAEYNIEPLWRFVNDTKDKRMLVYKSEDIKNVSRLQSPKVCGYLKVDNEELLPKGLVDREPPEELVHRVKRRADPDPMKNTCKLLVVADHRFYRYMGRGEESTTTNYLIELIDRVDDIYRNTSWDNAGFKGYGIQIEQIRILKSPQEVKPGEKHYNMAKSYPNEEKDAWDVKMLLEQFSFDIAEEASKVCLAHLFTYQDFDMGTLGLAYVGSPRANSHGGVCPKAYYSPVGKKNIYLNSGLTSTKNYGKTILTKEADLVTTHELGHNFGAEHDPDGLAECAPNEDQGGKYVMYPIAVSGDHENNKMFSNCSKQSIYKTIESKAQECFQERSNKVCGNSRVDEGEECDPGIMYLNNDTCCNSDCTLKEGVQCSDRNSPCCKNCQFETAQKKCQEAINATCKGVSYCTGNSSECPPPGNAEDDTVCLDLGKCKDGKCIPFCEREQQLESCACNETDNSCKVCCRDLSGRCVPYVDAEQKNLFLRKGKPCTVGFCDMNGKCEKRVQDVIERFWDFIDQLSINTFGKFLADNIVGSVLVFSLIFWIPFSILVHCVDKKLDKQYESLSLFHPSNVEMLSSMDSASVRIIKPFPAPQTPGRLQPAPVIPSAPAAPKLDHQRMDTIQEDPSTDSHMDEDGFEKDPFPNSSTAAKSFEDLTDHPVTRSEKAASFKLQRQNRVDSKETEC

Sequence of Nuclear receptor subfamily 5 group A member 2 (O00482 whole entry): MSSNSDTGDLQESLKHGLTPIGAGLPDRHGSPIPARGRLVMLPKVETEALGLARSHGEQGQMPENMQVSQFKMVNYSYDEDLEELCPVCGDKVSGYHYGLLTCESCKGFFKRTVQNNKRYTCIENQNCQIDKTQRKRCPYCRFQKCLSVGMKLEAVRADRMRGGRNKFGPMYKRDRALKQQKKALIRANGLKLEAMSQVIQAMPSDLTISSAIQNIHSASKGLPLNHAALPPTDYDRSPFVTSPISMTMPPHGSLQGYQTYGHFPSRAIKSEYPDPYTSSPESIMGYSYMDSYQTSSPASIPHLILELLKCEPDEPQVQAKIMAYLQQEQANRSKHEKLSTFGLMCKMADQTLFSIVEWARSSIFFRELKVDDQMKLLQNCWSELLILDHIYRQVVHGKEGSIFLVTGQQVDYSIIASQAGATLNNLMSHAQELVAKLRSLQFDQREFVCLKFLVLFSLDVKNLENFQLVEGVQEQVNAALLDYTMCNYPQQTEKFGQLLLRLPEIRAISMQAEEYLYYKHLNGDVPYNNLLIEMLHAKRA
Sequence of Steroidogenic factor 1 (Q13285 whole entry): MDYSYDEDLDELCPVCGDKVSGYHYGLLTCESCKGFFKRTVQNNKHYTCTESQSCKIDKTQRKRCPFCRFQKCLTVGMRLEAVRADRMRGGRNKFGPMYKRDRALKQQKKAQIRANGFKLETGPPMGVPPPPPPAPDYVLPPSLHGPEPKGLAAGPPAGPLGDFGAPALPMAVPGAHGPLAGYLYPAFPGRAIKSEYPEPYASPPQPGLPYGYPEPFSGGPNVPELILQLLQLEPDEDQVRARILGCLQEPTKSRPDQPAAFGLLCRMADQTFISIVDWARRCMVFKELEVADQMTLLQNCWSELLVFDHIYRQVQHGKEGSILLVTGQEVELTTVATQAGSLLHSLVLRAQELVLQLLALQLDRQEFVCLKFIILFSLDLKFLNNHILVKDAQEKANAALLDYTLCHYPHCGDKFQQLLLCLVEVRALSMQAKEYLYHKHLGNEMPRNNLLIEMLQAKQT
Sequence of Paired box protein Pax-8 (Q06710 whole entry): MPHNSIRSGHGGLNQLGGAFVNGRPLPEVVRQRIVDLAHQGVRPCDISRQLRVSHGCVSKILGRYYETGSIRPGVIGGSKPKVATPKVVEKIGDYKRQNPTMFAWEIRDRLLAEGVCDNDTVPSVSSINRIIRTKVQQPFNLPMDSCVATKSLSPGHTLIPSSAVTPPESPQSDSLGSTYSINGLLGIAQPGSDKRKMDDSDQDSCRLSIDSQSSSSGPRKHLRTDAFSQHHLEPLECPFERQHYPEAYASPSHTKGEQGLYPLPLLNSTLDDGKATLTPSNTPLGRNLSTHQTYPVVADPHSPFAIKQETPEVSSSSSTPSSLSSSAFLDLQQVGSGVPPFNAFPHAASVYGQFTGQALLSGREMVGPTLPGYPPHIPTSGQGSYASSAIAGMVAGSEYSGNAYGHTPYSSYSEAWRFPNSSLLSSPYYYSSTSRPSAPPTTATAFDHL
Sequence of Cytochrome P450 3A4 (P08684 whole entry): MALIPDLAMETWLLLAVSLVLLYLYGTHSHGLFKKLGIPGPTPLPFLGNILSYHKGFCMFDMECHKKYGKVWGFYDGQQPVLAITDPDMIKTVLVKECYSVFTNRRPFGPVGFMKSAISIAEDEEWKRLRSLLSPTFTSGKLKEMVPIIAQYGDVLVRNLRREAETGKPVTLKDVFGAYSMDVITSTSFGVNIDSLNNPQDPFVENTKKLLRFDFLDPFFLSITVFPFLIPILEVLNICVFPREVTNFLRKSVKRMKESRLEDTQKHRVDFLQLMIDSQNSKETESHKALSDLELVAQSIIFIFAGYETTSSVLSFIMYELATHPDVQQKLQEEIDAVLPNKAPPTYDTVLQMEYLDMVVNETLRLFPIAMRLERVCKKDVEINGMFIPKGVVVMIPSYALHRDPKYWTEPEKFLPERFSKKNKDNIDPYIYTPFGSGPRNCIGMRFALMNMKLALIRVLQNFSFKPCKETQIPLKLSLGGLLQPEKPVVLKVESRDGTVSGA

## N#C[C@H]1[C@H](c2ccc(C#Cc3ccccc3F)cc2)[C@H](CO)N1C(=O)C1CCC1
[1]
  AC50: 14.7 µM (active)
Paired box protein Pax-8
  AC50: 11.1 µM (active)
[2]
  AC50: 11.4 µM (active)
[3]
  AC50: 17.9 µM (active)
[4]
  AC50: 21.9 µM (active)
[5]
  AC50: 32.2 µM (active)
[6]
  AC50: 29.7 µM (active)
[7]
  AC50: 23.8 µM (active)

## O=C(C1=C(O)C(=O)N(Cc2ccco2)C1c1ccccc1)c1cccs1 (centres undefined)
Cytochrome P450 1A2
  AC50: 25.1 µM (inconclusive)
fMet-Leu-Phe receptor
  Ki: 35.2 µM (inactive)
Cytochrome P450 3A4
  AC50: 14.1 µM (inconclusive)

## CCN(CC)C(=O)[C@H]1C[C@H](CC(=O)NC/C=C(\C)CCC=C(C)C)C(=O)N2CCc3c([nH]c4ccc(Cl)cc34)[C@]12C
[8]
  IC50: 1.72 µM (active)
[9]
  EC50: > 53 µM (inactive)
[10]
  IC50: < 0.368 µM (active)

## C[C@@H]1CN([C@@H](C)CO)C(=O)c2cc(NC(=O)CCC(F)(F)F)ccc2O[C@@H](C)CCCCO[C@H]1CN(C)Cc1ccc(C(F)(F)F)cc1
Paired box protein Pax-8
  AC50: 2.43 µM (active)
[11]
  AC50: 65.5 µM (active)
[12]
  AC50: 50.8 µM (active)
[7]
  AC50: 17.2 µM (active)

## Cc1no[n+]([O-])c1COc1ccccc1/C=N/n1nnnc1N
H4
  EC50: 98.6 µM (active)
[13]
  EC50: 7.52 µM (active)
[14]
  IC50: 35.9 µM (inactive)
Steroidogenic factor 1
  IC50: 35.9 µM (inactive)
[15]
  IC50: 35.9 µM (inactive)

## CCOc1ccc(NC(=O)CSc2nncc(O)n2)cc1
[14]
  IC50: 0.594 µM (active)
Steroidogenic factor 1
  IC50: 0.178 µM (active)
[15]
  IC50: 35.9 µM (inactive)

## COCCNc1ccc([N+](=O)[O-])cc1C(=O)NC1CCCc2ccccc21 (centres undefined)
[14]
  IC50: 9.5 µM (active)
Steroidogenic factor 1
  IC50: 5.53 µM (active)
[15]
  IC50: 35.9 µM (inactive)

## CCCCN(CC)CCNC(=O)CCC(=O)Nc1ccc2nc(N3CCN(C)CC3)cc(C)c2c1
[16]
  AC50: 3.22 µM (active)
[17]
  IC50: 164 µM (active)

## CCS(=O)(=O)N1CC(=O)N2[C@H](CO)[C@@H](c3ccc(-c4ccccc4F)cc3)[C@H]2C1
Paired box protein Pax-8
  AC50: 5.26 µM (active)
[11]
  AC50: 28.6 µM (active)
[4]
  AC50: 60.5 µM (active)
[12]
  AC50: 63 µM (active)
[7]
  AC50: 14.1 µM (active)

## Cc1cc(F)ccc1C(O)c1nc(-c2cccc(OCc3ccccc3)c2)c[nH]1 (centres undefined)
[18]
  IC50: 13.9 µM (inactive)
[19]
  IC50: > 69.5 µM (inactive)

## CCCNC(=O)CS(=O)(=O)Cc1nc(-c2cccc(OC)c2)oc1C
fMet-Leu-Phe receptor
  Ki: > 66.7 µM (inactive)

## C[C@@H]1CCCCO[C@@H](CN(C)Cc2ccc(Cl)c(Cl)c2)[C@@H](C)CN([C@@H](C)CO)C(=O)c2cc(NC(=O)Nc3ccccc3)ccc2O1
Paired box protein Pax-8
  AC50: 4.6 µM (active)
[11]
  AC50: 49.2 µM (active)
[7]
  AC50: 30.2 µM (active)

## Cc1csc(NC(=O)CCn2c(=O)oc3ccccc32)n1
fMet-Leu-Phe receptor
  Ki: > 66.7 µM (inactive)

## C=CCC[C@@H](Cc1ccc(F)cc1)C(=O)OC[C@H](Cc1c[nH]c2ccccc12)NC(=O)[C@H](CC=C)CC(=O)N(CCO)Cc1ccccc1
[18]
  IC50: 5.38 µM (active)
[19]
  IC50: > 69.5 µM (inactive)

## COc1ccc(OC)c(C2C(C(=O)c3cccs3)=C(O)C(=O)N2c2cc(C)on2)c1 (centres undefined)
fMet-Leu-Phe receptor
  Ki: > 66.7 µM (inactive)

## Cc1[nH]c2nc(SCC(=O)c3cccc([N+](=O)[O-])c3)nc-2cc1Br
[8]
  IC50: 6.28 µM (active)
[9]
  EC50: > 53 µM (inactive)
[10]
  IC50: < 0.368 µM (active)
